Measurements from ChEMBL document CHEMBL5226391, “Valhidepsin Lipopeptides from Chromobacterium vaccinii: Structures, Biosynthesis, and Coregulation with FR900359 Production” (J Nat Prod, 2023).
The source made the active and inactive calls. The rule behind the calls is not given here.

Tests used:
A549 = experiment: Antiproliferative activity against human A549 cells assessed as reduction in cell viability at 50 uM incubated for 72 hrs by cellTiter-glo assay; type: functional, cell-based
NCI-H647 = experiment: Antiproliferative activity against human NCI-H647 cells assessed as reduction in cell viability at 50 uM incubated for 72 hrs by cellTiter-glo assay; type: functional, cell-based
NCI-H2228 = experiment: Antiproliferative activity against human NCI-H2228 cells assessed as reduction in cell viability at 50 uM incubated for 72 hrs by cellTiter-glo assay; type: functional, cell-based
RERF-LC-MS = experiment: Antiproliferative activity against human RERF-LC-MS cells assessed as reduction in cell viability at 50 uM incubated for 72 hrs by cellTiter-glo assay; type: functional, cell-based
Escherichia coli = experiment: Antibacterial activity against Escherichia coli ATCC 25922; type: functional, organism-based
Pseudomonas aeruginosa = experiment: Antibacterial activity against Pseudomonas aeruginosa PA14; type: functional, organism-based
Bacillus subtilis = experiment: Antibacterial activity against Bacillus subtilis ATCC 23857; type: functional, organism-based
Saccharomyces cerevisiae = experiment: Antimicrobial activity against Saccharomyces cerevisiae YSD1; type: functional, organism-based
[1] = test system: Schizosaccharomyces pombe; experiment: Antifungal activity against Schizosaccharomyces pombe H1374; type: functional, organism-based
[2] = Stability of compound at pH 9 assessed as half life measured at 0.5 to 92 hrs by LC-UV/MS analysis; type: physicochemical; conditions: buffer, time 0.5-92 hrs
[3] = Stability of compound at pH 8.5 assessed as half life measured at 0.5 to 92 hrs by LC-UV/MS analysis; type: physicochemical; conditions: buffer, time 0.5-92 hrs
[4] = Stability of compound at pH 8 assessed as half life measured at 0.5 to 92 hrs by LC-UV/MS analysis; type: physicochemical; conditions: buffer, time 0.5-92 hrs
[5] = Stability of compound at pH 7.5 measured at 0.5 to 92 hrs by LC-UV/MS analysis; type: physicochemical; conditions: buffer, time 0.5-92 hrs

| Compound | Activity (A549) | Activity (NCI-H647) | Activity (NCI-H2228) | Activity (RERF-LC-MS) | Activity (Escherichia coli) | Activity (Pseudomonas aeruginosa) | Activity (Bacillus subtilis) | Activity (Saccharomyces cerevisiae) | Activity [1] | half-life [2] | half-life [3] | half-life [4] | Stability [5] |
| --- | --- | --- | --- | --- | --- | --- | --- | --- | --- | --- | --- | --- | --- |
| CCCCCC/C=C\CC(=O)N[C@@H](CO)C(=O)N[C@@H](C(=O)N[C@@H](Cc1c[nH]cn1)C(=O)N[C@H](C(=O)N[C@H](CC(C)C)C(=O)N[C@H](C(=O)O)C(C)C)C(C)C)C(C)C | inactive | inactive | inactive | inactive | inactive | inactive | inactive | inactive | inactive |  |  |  |  |
| CCCCCC/C=C\CC(=O)N[C@H]1COC(=O)[C@H](C(C)C)NC(=O)[C@@H](CC(C)C)NC(=O)[C@H](C(C)C)NC(=O)[C@H](Cc2c[nH]cn2)NC(=O)[C@@H](C(C)C)NC1=O | Active | Active | Active | Active | inactive | inactive | Active | Active | Active | 7 h | 26 h | 5 h | Stable |
